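Dose response: 5 concentrations. Exposure: 48 h. Format: 96-well plates. Endpoint: linear interpolation; highest concentration if not reached. The concentration for 50% growth inhibition is given as GI50.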 Active and inactive are the calls of the source. No stated cut-off is given here; in the data, active = GI50 up to about 1.1 µM and inactive = higher.
Columns and labels:
Test in all cases: NCI-60 cell line screen, 48 h
A549 = tested on: A549
DLD-1 = tested on: DLD-1
DMS-273 = tested on: DMS-273
HCT-116 = tested on: HCT-116
HOP-62 = tested on: HOP-62
HOP-92 = tested on: HOP-92
HT-29 = tested on: HT-29
K562 = tested on: K562
LOX IMVI = tested on: LOX IMVI
M19-MEL = tested on: M19-MEL
NCI-H226 = tested on: NCI-H226
NCI-H522 = tested on: NCI-H522
SF-268 = tested on: SF-268
SK-MEL-28 = tested on: SK-MEL-28
SN12C = tested on: SN12C
SW-620 = tested on: SW-620
UO-31 = tested on: UO-31
RXF 393 = tested on: RXF 393

Structure (SMILES)	GI50 (A549)	GI50 (DLD-1)	GI50 (DMS-273)	GI50 (HCT-116)	GI50 (HOP-62)	GI50 (HOP-92)	GI50 (HT-29)	GI50 (K562)	GI50 (LOX IMVI)	GI50 (M19-MEL)	GI50 (NCI-H226)	GI50 (NCI-H522)	GI50 (SF-268)	GI50 (SK-MEL-28)	GI50 (SN12C)	GI50 (SW-620)	GI50 (UO-31)	GI50 (RXF 393)
CC[C@@H](C(=O)[C@@H](C)[C@@H](O)[C@H](C)CCc1ccc(C)c(O)c1C(=O)O)[C@H]1O[C@](CC)([C@H]2CC[C@](O)(CC)[C@H](C)O2)C[C@@H]1C [LASALOCID A SODIUM]	2.06 µM (inactive)	3.61 µM (inactive)	1.71 µM (inactive)	1.48 µM (inactive)	1.38 µM (inactive)	1.69 µM (inactive)	1.06 µM (active)	0.664 µM (active)	2.77 µM (inactive)	1.65 µM (inactive)	3.05 µM (inactive)	1.01 µM (active)	2.21 µM (inactive)	1.3 µM (inactive)	1.91 µM (inactive)	2.33 µM (inactive)	3.17 µM (inactive)	
COc1ccc(OC(C)=O)c2c1CCC=CC2=O	19.1 µM (inactive)	> 10 µM (inactive)	16.6 µM (inactive)	18.7 µM (inactive)	14.7 µM (inactive)	2.83 µM (inactive)	12.3 µM (inactive)	3.76 µM (inactive)	4.7 µM (inactive)		18.8 µM (inactive)	1.86 µM (inactive)	> 10 µM (inactive)	15 µM (inactive)	17.1 µM (inactive)	13.2 µM (inactive)	17.2 µM (inactive)	9.16 µM (inactive)
COCCCNC(=O)C1C(=O)C(=O)N(CCCOC)C1=O (configuration not stated)	> 100 µM (inactive)	> 100 µM (inactive)	> 100 µM (inactive)	> 100 µM (inactive)	> 100 µM (inactive)	> 100 µM (inactive)	> 100 µM (inactive)	> 100 µM (inactive)	> 100 µM (inactive)	> 100 µM (inactive)	> 100 µM (inactive)	> 100 µM (inactive)	> 100 µM (inactive)	> 100 µM (inactive)	> 100 µM (inactive)	> 100 µM (inactive)	> 100 µM (inactive)	
Cc1ccc([Se][Se]c2ccc(C)cc2)cc1	33.3 µM (inactive)	17.7 µM (inactive)	16.4 µM (inactive)	14.4 µM (inactive)	> 100 µM (inactive)	6.87 µM (inactive)	20.5 µM (inactive)	5.04 µM (inactive)	5.42 µM (inactive)	13.7 µM (inactive)	24.5 µM (inactive)	3.32 µM (inactive)	6.84 µM (inactive)	19.1 µM (inactive)	26.7 µM (inactive)	7.62 µM (inactive)	14.1 µM (inactive)	19.9 µM (inactive)
O=C(CSc1nc(=O)c(-c2ccccc2NC(=O)C(F)(F)F)n[nH]1)NC(=O)Nc1ccccc1	> 100 µM (inactive)	18.9 µM (inactive)	90.8 µM (inactive)	> 100 µM (inactive)	> 100 µM (inactive)	> 100 µM (inactive)	> 100 µM (inactive)	61.4 µM (inactive)	> 100 µM (inactive)	> 100 µM (inactive)	67.8 µM (inactive)	76.4 µM (inactive)	56.6 µM (inactive)	> 100 µM (inactive)	> 100 µM (inactive)	> 100 µM (inactive)	38.1 µM (inactive)	> 100 µM (inactive)
CC1=C(O)C(=O)C2C(=O)C1C(C)C2c1ccc(C)cc1 (configuration not stated)	> 100 µM (inactive)	> 100 µM (inactive)	> 100 µM (inactive)		> 100 µM (inactive)	> 100 µM (inactive)	> 100 µM (inactive)	> 100 µM (inactive)	> 100 µM (inactive)	> 100 µM (inactive)		> 100 µM (inactive)	> 100 µM (inactive)	> 100 µM (inactive)		> 100 µM (inactive)	> 100 µM (inactive)	> 100 µM (inactive)
CC(C)C1N2CCCCC2[C@@H]2c3[nH]c4ccccc4c3CCN12 (some centres not stated)	> 100 µM (inactive)	> 100 µM (inactive)	> 100 µM (inactive)	> 100 µM (inactive)	> 100 µM (inactive)	> 100 µM (inactive)	> 100 µM (inactive)	> 100 µM (inactive)		> 100 µM (inactive)			> 100 µM (inactive)	> 100 µM (inactive)	> 100 µM (inactive)	> 100 µM (inactive)	> 100 µM (inactive)	> 100 µM (inactive)
CCN(CC)CCNC(=O)C1COc2ccc(-c3cc(=O)c4ccccc4o3)cc2O1 (configuration not stated)	23.6 µM (inactive)	22.9 µM (inactive)	19.4 µM (inactive)	17.8 µM (inactive)	21.4 µM (inactive)	19.1 µM (inactive)	14.9 µM (inactive)	16 µM (inactive)	17.2 µM (inactive)	18.3 µM (inactive)	16.6 µM (inactive)	18.2 µM (inactive)	19.5 µM (inactive)	17.4 µM (inactive)	19.1 µM (inactive)	18.5 µM (inactive)	16 µM (inactive)	20 µM (inactive)
O=c1[nH]c2cc(-c3ccccc3)nc-2nn1-c1c(Cl)cc(Cl)cc1Cl	37.6 µM (inactive)	37.5 µM (inactive)	37.3 µM (inactive)	22.4 µM (inactive)	25.5 µM (inactive)	31.5 µM (inactive)	34.4 µM (inactive)	41.1 µM (inactive)	24.3 µM (inactive)	22.8 µM (inactive)	23.7 µM (inactive)	28.8 µM (inactive)	> 100 µM (inactive)	> 100 µM (inactive)	28.6 µM (inactive)	33.7 µM (inactive)	22.3 µM (inactive)	
COc1cc(Cl)c2c3c(c(C(C)=O)oc13)CCC2	> 100 µM (inactive)	> 100 µM (inactive)	> 100 µM (inactive)	> 100 µM (inactive)	> 100 µM (inactive)	92.9 µM (inactive)	> 100 µM (inactive)	> 100 µM (inactive)	> 100 µM (inactive)	> 100 µM (inactive)				> 100 µM (inactive)	> 100 µM (inactive)	> 100 µM (inactive)		85.1 µM (inactive)
Cc1ccccc1N(CC(=O)O)S(=O)(=O)c1ccccc1	> 100 µM (inactive)	> 100 µM (inactive)	> 100 µM (inactive)			> 100 µM (inactive)	> 100 µM (inactive)	> 100 µM (inactive)	> 100 µM (inactive)	> 100 µM (inactive)	> 100 µM (inactive)	> 100 µM (inactive)	> 100 µM (inactive)	> 100 µM (inactive)	> 100 µM (inactive)	> 100 µM (inactive)	> 100 µM (inactive)	> 100 µM (inactive)
CC(=O)CCCCO	> 100 µM (inactive)		> 100 µM (inactive)	> 100 µM (inactive)	> 100 µM (inactive)	> 100 µM (inactive)	> 100 µM (inactive)	> 100 µM (inactive)	> 100 µM (inactive)	> 100 µM (inactive)		> 100 µM (inactive)	> 100 µM (inactive)	> 100 µM (inactive)	> 100 µM (inactive)	> 100 µM (inactive)	> 100 µM (inactive)	> 100 µM (inactive)
COc1cc(-c2cc(=O)c3c(O)c(OC)c(OC)c(OC)c3o2)ccc1O	27.3 µM (inactive)	23.9 µM (inactive)	5.08 µM (inactive)	24.8 µM (inactive)	21.6 µM (inactive)	2.33 µM (inactive)		17.8 µM (inactive)	16.8 µM (inactive)	22.8 µM (inactive)		17.1 µM (inactive)	26.5 µM (inactive)	23.5 µM (inactive)	26.7 µM (inactive)	31.7 µM (inactive)	28.8 µM (inactive)	13 µM (inactive)
N=C(N)N/N=C(/CC1OC(=O)c2ccccc21)c1ccc2ccccc2c1 (configuration not stated)		14 µM (inactive)	21.6 µM (inactive)		18.5 µM (inactive)	22 µM (inactive)	21.9 µM (inactive)	24.3 µM (inactive)	23.1 µM (inactive)	16.2 µM (inactive)	13.7 µM (inactive)	14.2 µM (inactive)	13.6 µM (inactive)	18.6 µM (inactive)	19.6 µM (inactive)		17.8 µM (inactive)	
COc1ccc2c(c1)[n+]([O-])c(-c1nc3ccccc3s1)c(N)[n+]2[O-]	> 100 µM (inactive)	69.2 µM (inactive)	> 100 µM (inactive)	54.3 µM (inactive)	> 100 µM (inactive)	> 100 µM (inactive)	> 100 µM (inactive)	64.4 µM (inactive)		49.7 µM (inactive)	> 100 µM (inactive)	51.3 µM (inactive)		55.6 µM (inactive)	> 100 µM (inactive)	> 100 µM (inactive)	34 µM (inactive)	
COc1ccc(/C=c2\sc3nnc(CCC(=O)Nc4cccc(C(F)(F)F)c4)n3c2=O)cc1	> 100 µM (inactive)	> 100 µM (inactive)	> 100 µM (inactive)	> 100 µM (inactive)	> 100 µM (inactive)	> 100 µM (inactive)	> 100 µM (inactive)	> 100 µM (inactive)	> 100 µM (inactive)	> 84.1 µM (inactive)	> 100 µM (inactive)		97.5 µM (inactive)	> 74.3 µM (inactive)	> 100 µM (inactive)	> 100 µM (inactive)	> 100 µM (inactive)	41.5 µM (inactive)
O=C(Cc1nc2ccccc2o1)C(=O)Nc1cccc(C(F)(F)F)c1	> 100 µM (inactive)	> 100 µM (inactive)	> 100 µM (inactive)	> 100 µM (inactive)	> 100 µM (inactive)	> 100 µM (inactive)	> 100 µM (inactive)	> 100 µM (inactive)	> 100 µM (inactive)	> 100 µM (inactive)	> 100 µM (inactive)	> 100 µM (inactive)	> 100 µM (inactive)	> 100 µM (inactive)	> 100 µM (inactive)	> 100 µM (inactive)	> 100 µM (inactive)	

From ChEMBL document CHEMBL1201862, “PubChem BioAssay data set” (2004)
